Measurements: publication PMC8576818, “The ethoxycarbonyl group as both activating and protective group in N-acyl-Pictet–Spengler reactions using methoxystyrenes. A short approach to racemic 1-benzyltetrahydroisoquinoline alkaloids” (Beilstein Journal of Organic Chemistry, 2021)

Key:
[1] = target: T1, two-pore channel 2 (TPC2) (Homo sapiens, UniProt Q8NHX9, L11A/L12A); test: fluo-4 Ca2+ FLIPR assay in HEK293 cells stably expressing hTPC2, stimulated with TPC2-A1-P or TPC2-A1-N; assay type: cell-based
T1 construct: gene TPCN2; human TPC2, C-terminally RFP-tagged, rerouted to the plasma membrane (hTPC2L11A/L12A)

P-glycoprotein (P-gp) = target: T2, P-glycoprotein (P-gp) (Homo sapiens, UniProt P08183); test: calcein-AM retention by flow cytometry in VCR-R CEM cells at […]; assay type: cell-based
T2 construct: gene ABCB1; P-glycoprotein overexpressing VCR-R CEM cells
T2 sequence (P08183 whole entry): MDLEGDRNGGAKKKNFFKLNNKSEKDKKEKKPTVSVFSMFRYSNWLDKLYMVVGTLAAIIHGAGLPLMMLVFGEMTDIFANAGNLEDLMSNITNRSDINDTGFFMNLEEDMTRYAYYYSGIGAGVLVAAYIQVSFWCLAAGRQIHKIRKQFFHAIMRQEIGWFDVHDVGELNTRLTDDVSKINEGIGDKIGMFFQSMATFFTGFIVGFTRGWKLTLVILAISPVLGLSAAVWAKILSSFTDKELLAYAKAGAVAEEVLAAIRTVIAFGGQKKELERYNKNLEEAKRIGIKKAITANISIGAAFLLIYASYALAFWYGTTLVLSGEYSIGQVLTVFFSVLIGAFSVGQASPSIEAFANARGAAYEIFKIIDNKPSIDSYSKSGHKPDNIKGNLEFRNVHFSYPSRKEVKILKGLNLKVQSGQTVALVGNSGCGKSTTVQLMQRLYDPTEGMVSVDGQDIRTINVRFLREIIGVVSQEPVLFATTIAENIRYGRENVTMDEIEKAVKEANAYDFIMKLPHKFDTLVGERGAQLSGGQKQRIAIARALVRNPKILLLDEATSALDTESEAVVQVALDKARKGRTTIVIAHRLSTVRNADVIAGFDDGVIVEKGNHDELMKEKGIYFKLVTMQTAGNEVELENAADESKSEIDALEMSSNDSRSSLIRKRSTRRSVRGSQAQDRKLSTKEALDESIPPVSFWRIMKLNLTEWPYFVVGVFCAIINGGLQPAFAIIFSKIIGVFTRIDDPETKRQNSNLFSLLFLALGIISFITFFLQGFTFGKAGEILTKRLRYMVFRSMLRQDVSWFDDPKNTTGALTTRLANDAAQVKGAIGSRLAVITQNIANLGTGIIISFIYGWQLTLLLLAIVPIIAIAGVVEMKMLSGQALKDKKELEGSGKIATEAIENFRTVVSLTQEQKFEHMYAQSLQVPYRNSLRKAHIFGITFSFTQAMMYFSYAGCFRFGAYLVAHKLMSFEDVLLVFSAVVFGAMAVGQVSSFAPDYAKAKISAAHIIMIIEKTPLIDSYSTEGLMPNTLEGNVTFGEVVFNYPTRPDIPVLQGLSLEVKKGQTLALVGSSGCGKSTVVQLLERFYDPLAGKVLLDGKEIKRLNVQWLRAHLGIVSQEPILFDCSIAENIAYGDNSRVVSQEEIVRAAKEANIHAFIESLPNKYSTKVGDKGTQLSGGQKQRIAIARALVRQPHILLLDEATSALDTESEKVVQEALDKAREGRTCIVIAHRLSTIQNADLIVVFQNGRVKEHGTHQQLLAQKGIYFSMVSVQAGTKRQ

T1 sequence (Q8NHX9 whole entry L11A/L12A): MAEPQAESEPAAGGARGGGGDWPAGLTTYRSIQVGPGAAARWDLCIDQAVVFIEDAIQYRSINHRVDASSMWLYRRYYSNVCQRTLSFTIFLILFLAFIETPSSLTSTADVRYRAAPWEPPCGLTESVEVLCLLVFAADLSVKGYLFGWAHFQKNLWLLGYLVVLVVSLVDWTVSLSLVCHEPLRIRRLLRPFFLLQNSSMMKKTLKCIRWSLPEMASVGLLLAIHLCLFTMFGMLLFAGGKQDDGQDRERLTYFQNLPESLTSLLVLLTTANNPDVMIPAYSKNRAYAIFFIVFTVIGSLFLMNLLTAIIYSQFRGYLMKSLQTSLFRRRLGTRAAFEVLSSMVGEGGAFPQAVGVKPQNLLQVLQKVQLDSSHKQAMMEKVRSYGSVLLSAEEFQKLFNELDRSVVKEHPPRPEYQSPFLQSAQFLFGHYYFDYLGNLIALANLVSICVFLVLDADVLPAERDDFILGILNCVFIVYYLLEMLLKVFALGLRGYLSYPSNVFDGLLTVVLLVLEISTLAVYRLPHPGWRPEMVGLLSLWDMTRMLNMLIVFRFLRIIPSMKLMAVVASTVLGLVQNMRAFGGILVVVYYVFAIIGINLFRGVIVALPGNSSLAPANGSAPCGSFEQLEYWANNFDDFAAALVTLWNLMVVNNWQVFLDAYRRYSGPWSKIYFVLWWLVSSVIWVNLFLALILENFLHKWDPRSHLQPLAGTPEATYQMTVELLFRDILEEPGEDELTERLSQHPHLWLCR

Row | IC50 [1] | Compound | calcein-AM retention by flow cytometry in VCR-R CEM cells at 10 μM (P-glycoprotein (P-gp))
1 | 3.6/57 µM | COc1ccc2cc1Oc1ccc(cc1)C[C@H]1c3c(cc4c(c3Oc3cc5c(cc3OC)CCN(C)[C@@H]5C2)OCO4)CCN1C [cepharanthine] | –
2 | 31/21 µM | COc1ccc2cc1Oc1ccc(cc1)C[C@H]1c3cc(c(OC)cc3CCN1C)Oc1c(OC)c(OC)cc3c1[C@H](C2)N(C)CC3 [tetrandrine] | indicating no P-glycoprotein inhibition. Tetrandrine served as positive control (Figure 5C).
